Measurements published in PubChem BioAssay AID248 (DTP/NCI, 2004).
“And” between values parts separate entries of the source, which are not always exact repeats. Equal values may be shown once. Inconclusive results and toxic doses are left out. Cut-off read from the data, not from the text of the source: active = T/C of 150% or more; inactive = T/C below 125%.

Tested on: L1210 leukemia ip in BDF1 mice, survival T/C
Experiment: NCI In Vivo Anticancer Drug Screen. Data for tumor model L1210 Leukemia (intraperitoneal) in B6D2F1 (BDF1) mice
Conditions: endpoint: mean survival time, higher = longer survival
How it was run: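 Antitumor effect is assessed in tumor-bearing animals. Survival in the compound arm is compared with a vehicle-dosed control arm and expressed as their quotient.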

[1] = dose: 100.0 mg/kg/injection, schedule: Q01DX001 (ip), vehicle: Klucel (hydroxypropylcellulose) (HPC)
[2] = dose: 200.0 mg/kg/injection, schedule: Q01DX001 (ip), vehicle: Klucel (hydroxypropylcellulose) (HPC)
[3] = dose: 400.0 mg/kg/injection, schedule: Q01DX001 (ip), vehicle: Klucel (hydroxypropylcellulose) (HPC)
[4] = dose: 75.0 mg/kg/injection, schedule: Q01DX001 (ip), vehicle: saline
[5] = dose: 150.0 mg/kg/injection, schedule: Q01DX001 (ip), vehicle: saline
[6] = dose: 100.0 mg/kg/injection, schedule: Q04DX003 (ip), vehicle: saline
[7] = dose: 200.0 mg/kg/injection, schedule: Q04DX003 (ip), vehicle: saline
[8] = dose: 400.0 mg/kg/injection, schedule: Q04DX003 (ip), vehicle: saline
[9] = dose: 100.0 mg/kg/injection, schedule: Q04DX003 (ip), vehicle: saline with Tween-80
[10] = dose: 200.0 mg/kg/injection, schedule: Q04DX003 (ip), vehicle: saline with Tween-80
[11] = dose: 400.0 mg/kg/injection, schedule: Q04DX003 (ip), vehicle: saline with Tween-80

Measured: T/C

COC(=O)/C=C\C(=O)O (tested in a mixture with another compound)
inactive: dose: 15.5 mg/kg/injection, schedule: Q#A X Z (oral), vehicle: carboxymethylcellulose (CMC) 98 % of control | dose: 31.25 mg/kg/injection, schedule: Q#A X Z (ip), vehicle: carboxymethylcellulose (CMC) 101 % of control | dose: 31.5 mg/kg/injection, schedule: Q#A X Z (oral), vehicle: carboxymethylcellulose (CMC) 100 % of control | dose: 63.0 mg/kg/injection, schedule: Q#A X Z (oral), vehicle: carboxymethylcellulose (CMC) 100 % of control | dose: 126.0 mg/kg/injection, schedule: Q#A X Z (oral), vehicle: carboxymethylcellulose (CMC) 100 % of control

CNC(=O)O[C@H]1CC[C@@]2(C)C(=CC[C@H]3[C@@H]4CC[C@H]([C@H](C)CCCC(C)C)[C@@]4(C)CC[C@@H]32)C1
inactive: dose: 100.0 mg/kg/injection, schedule: Q01DX001 (sc), vehicle: steriod suspending solution 87 % of control | dose: 200.0 mg/kg/injection, schedule: Q01DX001 (sc), vehicle: steriod suspending solution 97 % of control | dose: 400.0 mg/kg/injection, schedule: Q01DX001 (sc), vehicle: steriod suspending solution 92 % of control

Nc1nc(Cl)c(CCCCc2ccccc2)c(C(=O)O)n1
inactive: [1] 93 % of control | [2] 91 % of control | [3] 101 % of control

CN(C)CCNCc1ccccc1
inactive: dose: 44.4 mg/kg/injection, schedule: Q01DX001 (ip), vehicle: saline 95 % of control and 98 % of control | dose: 66.7 mg/kg/injection, schedule: Q01DX001 (ip), vehicle: saline 96 % of control and 102 % of control | [4] 98 % of control | [5] 91 % of control and 94 % of control | dose: 300.0 mg/kg/injection, schedule: Q01DX001 (ip), vehicle: saline 95 % of control

Fc1ccc(CSC(=S)Nc2ccc(Cl)c(Cl)c2)cc1
inactive: dose: 75.0 mg/kg/injection, schedule: Q04DX003 (ip), vehicle: saline with Tween-80 102 % of control | dose: 150.0 mg/kg/injection, schedule: Q04DX003 (ip), vehicle: saline with Tween-80 106 % of control

Cc1nc(C)c([N+](=O)[O-])s1
inactive: dose: 100.0 mg/kg/injection, schedule: Q01DX009 (ip), vehicle: Klucel (hydroxypropylcellulose) (HPC) 93 % of control | dose: 100.0 mg/kg/injection, schedule: Q04DX003 (ip), vehicle: Klucel (hydroxypropylcellulose) (HPC) 100 % of control | dose: 200.0 mg/kg/injection, schedule: Q01DX009 (ip), vehicle: Klucel (hydroxypropylcellulose) (HPC) 94 % of control | dose: 200.0 mg/kg/injection, schedule: Q04DX003 (ip), vehicle: Klucel (hydroxypropylcellulose) (HPC) 96 % of control | dose: 400.0 mg/kg/injection, schedule: Q01DX009 (ip), vehicle: Klucel (hydroxypropylcellulose) (HPC) 101 % of control | dose: 400.0 mg/kg/injection, schedule: Q04DX003 (ip), vehicle: Klucel (hydroxypropylcellulose) (HPC) 100 % of control

CCCCCCN1CCCC(OC(=O)N(C)C)C1 (stereo not drawn)
inactive: dose: 25.0 mg/kg/injection, schedule: Q04DX002 (ip), vehicle: saline 113 % of control | dose: 50.0 mg/kg/injection, schedule: Q04DX002 (ip), vehicle: saline 103 % of control | dose: 100.0 mg/kg/injection, schedule: Q04DX002 (ip), vehicle: saline 100 % of control and 104 % of control

NCCSS(=O)(=O)CCN
inactive: dose: 100.0 mg/kg/injection, schedule: Q01DX009 (ip), vehicle: saline 105 % of control | [6] 106 % of control | dose: 200.0 mg/kg/injection, schedule: Q01DX009 (ip), vehicle: saline 107 % of control | [7] 107 % of control | dose: 400.0 mg/kg/injection, schedule: Q01DX009 (ip), vehicle: saline 100 % of control | [8] 100 % of control

CC1CCC(C(C)C)C2(C1)NC(=O)N(CC(=O)O)C2=O (stereo not drawn)
inactive: [9] 93 % of control | [10] 100 % of control | [11] 104 % of control

O=C(C1=C(C(=O)c2ccccc2)C2C=CC1C2)c1ccccc1
inactive: dose: 75.0 mg/kg/injection, schedule: Q04DX003 (ip), vehicle: Klucel (hydroxypropylcellulose) (HPC) 96 % of control | dose: 150.0 mg/kg/injection, schedule: Q04DX003 (ip), vehicle: Klucel (hydroxypropylcellulose) (HPC) 94 % of control | dose: 300.0 mg/kg/injection, schedule: Q04DX003 (ip), vehicle: Klucel (hydroxypropylcellulose) (HPC) 89 % of control

Nc1ncnc(N)c1NC(=O)c1ccc(CCc2ccccc2)c(Cl)c1
inactive: [1] 102 % of control | [2] 90 % of control | [3] 86 % of control

CSc1ccc(NC(=O)c2ccc(Cl)cc2)cc1
inactive: dose: 100.0 mg/kg/injection, schedule: Q04DX002 (ip), vehicle: saline with Tween-80 100 % of control | dose: 200.0 mg/kg/injection, schedule: Q04DX002 (ip), vehicle: saline with Tween-80 100 % of control | dose: 400.0 mg/kg/injection, schedule: Q04DX002 (ip), vehicle: saline with Tween-80 92 % of control

O=C(NC1CCCCC1)C1C2CC3OC(=O)C1C3C2 (stereo not drawn)
inactive: [9] 101 % of control | [6] 104 % of control | [10] 97 % of control | [7] 98 % of control | [11] 101 % of control | [8] 104 % of control

CCOC(=O)c1cccc2ccc[n+](C)c12
inactive: dose: 37.5 mg/kg/injection, schedule: Q04DX003 (ip), vehicle: saline 91 % of control | [4] 97 % of control | dose: 75.0 mg/kg/injection, schedule: Q04DX003 (ip), vehicle: saline 91 % of control | [5] 97 % of control | dose: 150.0 mg/kg/injection, schedule: Q04DX003 (ip), vehicle: saline 95 % of control

CC1=CC(C)(C)NC(=S)N1c1cccc2ccccc12
inactive: dose: 75.0 mg/kg/injection, schedule: Q01DX009 (ip), vehicle: saline with Tween-80 90 % of control | dose: 150.0 mg/kg/injection, schedule: Q01DX009 (ip), vehicle: saline with Tween-80 87 % of control | dose: 224.0 mg/kg/injection, schedule: Q01DX Z (ip), vehicle: methylcellulose (MC) 94 % of control | dose: 300.0 mg/kg/injection, schedule: Q01DX009 (ip), vehicle: saline with Tween-80 88 % of control | dose: 334.0 mg/kg/injection, schedule: Q01DX Z (ip), vehicle: methylcellulose (MC) 86 % of control | dose: 500.0 mg/kg/injection, schedule: Q01DX Z (ip), vehicle: methylcellulose (MC) 88 % of control | dose: 750.0 mg/kg/injection, schedule: Q01DX Z (ip), vehicle: methylcellulose (MC) 102 % of control
